Test results from patent US20110177161A1, “PHARMACEUTICAL COMPOSITIONS OF [5(S)-(2'-HYDROXYETHOXY)-20(S)-CAMPTOTHECIN” (DR. REDDY'S LABORATORIES LIMITED, priority 2007, published 2011).
Values after ≈ are worked out from the molar mass of the structure shown.

Assays:
[1] = Physicochemical characteristics of drug substance, powder composition, blend and lyophilized product
Description: Another indication of the physicochemical characteristics of the powder composition is the density properties such as bulk and tapped density. Bulk density is described as untapped or tapped. Untapped bulk density of a substance is the undisturbed packing density of that substance and tapped bulk density relates to the packing density after tapping a bed of substance until no change in the packing density is seen. Bulk density and tapped density can be determined using compendial bulk density apparatus, the method being given in United States Pharmacopeia 29, United States Pharmacopeial Convention, Inc., Rockville, Md., 2005, at pages 2638-2639. A higher bulk density indicates a dense material allowing a higher dose to be filled into a given size capsule for example. The powder compositions can have bulk densities from about 0.8 g/ml to about 0.2 g/ml, or from about 0.6 g/ml to about 0.2 g/ml.
The Hausner ratio is a measure of inter-particle friction and the potential powder arch or bridge strength and stability (Hausner, H. H. Friction conditions in a mass of metal powders. International Journal of Powder Metallurgy 1967, 3 (4), pages 7-13). It has been widely used to estimate the flow properties of powders, blends, granules and other such particles or aggregates and is expressed as the ratio of tapped bulk density to the untapped bulk density of the substance. Hausner ratio used herein is defined as ratio of tapped to untapped bulk densities. A Hausner ratio of <1.2 indicates good flow while ratio >1.5 indicate poor flow. The powder compositions can have a Hausner ratio less than 1.5 or less than 1.2.
Carr index as used herein is defined as the percent compressibility which is a percentage ratio of the difference between tapped bulk density and initial bulk density to tapped bulk density. Carr index values between 5-15% represent materials with excellent flowability, values between 18-21% represent fair-flowability and values above 40% represent very poor flowability. The powder compositions of the invention can have Carr index values less than 40% or less than 21% or less than 15%.
Table 1 describes the physicochemical characteristics of DRF-(5S,20S)-1042, which is used in the examples below.
The powder composition and formulation blend along with their placebo have been characterized for their physical parameters and the data has been tabulated in table 11.
After completion of lyophilization cycle the vials were sealed using 20 mm aluminum flip-off seals. The resulting lyophilized product was tested for various parameters as per Table 19.

physchem [2] = assay type: physicochemical; details: thermodynamic from solid
Procedure: Excess amounts of DRF-(5S,20S)-1042 were added to different media including water, fasting state simulated intestinal fluid (FaSIF), fed state simulated intestinal fluid (FeSIF), aqueous sodium carbonate solution (0.1M, pH12.6), aqueous sodium hydroxide solution (0.1M, pH 12.73) and the suspensions were shaken at room temperature for 24 hours at 200 rpm in a mechanical shaker water bath till no further drug went into solution when checked visually. The suspensions were filtered through a 0.22 μm membrane filter (supplied by Millipore) and the content of DRF-(5S,20S)-1042 was quantified by using the HPLC method described above.

physchem [3] = assay type: physicochemical
Procedure: Excess amounts of DRF-(5S,20S)-1042 were added to aqueous solutions of HPBCD with concentrations ranging from 0-40% w/v and the suspensions were shaken at 200 rpm and 25° C. in an incubator shaker, till no further DRF-(5S,20S)-1042 went into solution. The solutions were filtered through a 0.22 μm membrane filter and subjected to analysis by HPLC by a process described above. The results are described in Table 3 and in FIG. 1.

[4] = Storage stability of powder composition and capsules (HPLC impurities, assay); assay type: physicochemical; details: Table 13; E* (S-isomer)
Procedure: Samples are analyzed by HPLC using a Chiralcel OD-H 250×4.6 mm column with a 5 μm particle size, at a wavelength of 257 nm using a variable wavelength UV detector, and a mobile phase comprising buffer (0.01 M KH2PO4; pH 3.0±0.1): acetonitrile (68:32% v/v), flow rate 1 ml/minute.
For the determination of the R-isomer impurity in the compositions, conditions essentially similar to the ones described above are used. The mobile phase comprises buffer (pH 3.0±0.1): acetonitrile (76:24% v/v).
For impurities other than the R-isomer the HPLC analysis comprises a Waters HPLC system equipped with a variable wavelength UV detector using symmetry C18, 250 column with a 5 μm particle size, at a wavelength of 257 nm, column temperature of 40° C. The mobile phase comprises
The capsules of Example 9B were charged for stability for about 3 months at different temperature conditions such as 2-8° C., 25° C. and the samples were analyzed by an HPLC procedure described above.
The powder composition of Example 13 was filled in amber coloured glass vials and sealed. Both initial sample and samples exposed at 25° C./60% RH (relative humidity), 30° C./65% RH, 40° C./75% RH for period of 3 days were analyzed for impurities by using HPLC as per the process described above.
The capsules have been exposed at 25° C./60% RH, 30° C./65% RH and 40° C./75% RH for a period of 3 months and data has been tabulated in Table 13.
The capsules packed in HDPE containers were exposed to different stability conditions such as 40° C./75% RH, 30° C./65% RH, 25° C./60% RH, 2-8° C. for about 6-12 months.

in vivo = assay: in vivo; parameters: species or system Swiss Albino mice; details: Swiss Albino, mouse, po, 2.5 mg/kg
Procedure: 5(S)-CPT (2.5 mg/kg) and 5(RS)-CPT (5 mg/kg, including 2.5 mg/kg of 5(S)-CPT in the mixture) were been administered to Swiss Albino mice to evaluate oral pharmacokinetics.
Swiss Albino mice, 3-6 weeks of age and weighing between 28-34 g were used in the study. Twelve mice were used per study. The oral pharmacokinetics test was carried out in overnight fasted condition and intravenous pharmacokinetics was carried out in fed condition. The test drugs were administered as a solution by oral gavage or lateral tail vein injection. Sparse blood samples of about 250 microliters were collected from retro-orbital plexus at designated time points into microcentrifuge tubes containing 25 microliters of EDTA. Plasma was separated by centrifuging blood at 12,800 rpm for 2 min and refrigerated until analysis.
Samples were tested for the presence of the test drug as follows. An aliquot of 100µl plasma (stored at 8° C.) was precipitated with 400µl of cold methanol for the estimation of total (lactone+carboxylate). […] Concentrations of the test drug were calculated from the linearity plotted by spiking known concentrations of the test drug in blank rat plasma. The pharmacokinetics of the test drug was calculated using non-compartmental analysis.

CC[C@@]1(O)C(=O)OCc2c1cc1n(c2=O)[C@@H](OCCO)c2cc3ccccc3nc2-1 [DRF-(5S,20S)-1042, 5(S)-(2′-hydroxyethoxy)-20(S)-camptothecin]
Bulk density ([1]; drug substance): 0.17 g/mL
Carr Index ([1]; drug substance): 46.5%
Hausner ratio ([1]; drug substance): 1.9
Moisture content ([1]; drug substance): 0.2 % w/w
Tapped density ([1]; drug substance): 0.31 g/mL
Particle size D10 ([1]; lot used for the examples): D10 = 3.6 μm
Particle size D50 ([1]; lot used for the examples): D50 = 10.9 μm
Particle size D90 ([1]; lot used for the examples): D90 = 34.0 μm
solubility at 24 h (physchem [2]; fessif): ~41 µg/mL (≈ 0.1 mM)
solubility at 24 h (physchem [2]; pH 12.6, aqueous buffer): 4160 µg/mL (≈ 10.2 mM)
solubility at 24 h (physchem [2]; pH 12.73, aqueous buffer): 6670 µg/mL (≈ 16.3 mM)
increase in aqueous solubility and solubility in bio-relevant media vs uncomplexed state (physchem [3]): more than 50 fold
increase in aqueous solubility when compared with water alone (physchem [3]): over 50 fold
solubility (physchem [3]; 25 °C, water, thermodynamic from solid, Solubility): 20 µg/mL (≈ 0.049 mM)
A = DRF (5R,20S)-1042 [4]: 1.11 % Peak Area
B = Decarboxylated impurity [4]: 0.02 % Peak Area
C = Dimer impurity [4]: 0.35 % Peak Area
D = Total impurities excluding DRF (5R,20S)-1042 [4]: 0.96 % Peak Area
AUC (in vivo): 1.1 µM·h
